{"source": "patent US8153400B1", "about": "“Nucleic acids encoding a mutT domain-containing polypeptide” (Beth Israel Deaconess Medical Center, Inc., priority 1999, dated 2012)", "key": {"TrpC7": {"biological_target": "T1, TrpC7 (Homo sapiens, UniProt O94759, Q1189R)", "T1 construct": "expressed in transfected cells; host or cells: HEK293 cells expressing the tetracycline repressor (pcDNA6/TR); construct in pcDNA4/TO", "T1 sequence (O94759 3-1503 Q1189R)": "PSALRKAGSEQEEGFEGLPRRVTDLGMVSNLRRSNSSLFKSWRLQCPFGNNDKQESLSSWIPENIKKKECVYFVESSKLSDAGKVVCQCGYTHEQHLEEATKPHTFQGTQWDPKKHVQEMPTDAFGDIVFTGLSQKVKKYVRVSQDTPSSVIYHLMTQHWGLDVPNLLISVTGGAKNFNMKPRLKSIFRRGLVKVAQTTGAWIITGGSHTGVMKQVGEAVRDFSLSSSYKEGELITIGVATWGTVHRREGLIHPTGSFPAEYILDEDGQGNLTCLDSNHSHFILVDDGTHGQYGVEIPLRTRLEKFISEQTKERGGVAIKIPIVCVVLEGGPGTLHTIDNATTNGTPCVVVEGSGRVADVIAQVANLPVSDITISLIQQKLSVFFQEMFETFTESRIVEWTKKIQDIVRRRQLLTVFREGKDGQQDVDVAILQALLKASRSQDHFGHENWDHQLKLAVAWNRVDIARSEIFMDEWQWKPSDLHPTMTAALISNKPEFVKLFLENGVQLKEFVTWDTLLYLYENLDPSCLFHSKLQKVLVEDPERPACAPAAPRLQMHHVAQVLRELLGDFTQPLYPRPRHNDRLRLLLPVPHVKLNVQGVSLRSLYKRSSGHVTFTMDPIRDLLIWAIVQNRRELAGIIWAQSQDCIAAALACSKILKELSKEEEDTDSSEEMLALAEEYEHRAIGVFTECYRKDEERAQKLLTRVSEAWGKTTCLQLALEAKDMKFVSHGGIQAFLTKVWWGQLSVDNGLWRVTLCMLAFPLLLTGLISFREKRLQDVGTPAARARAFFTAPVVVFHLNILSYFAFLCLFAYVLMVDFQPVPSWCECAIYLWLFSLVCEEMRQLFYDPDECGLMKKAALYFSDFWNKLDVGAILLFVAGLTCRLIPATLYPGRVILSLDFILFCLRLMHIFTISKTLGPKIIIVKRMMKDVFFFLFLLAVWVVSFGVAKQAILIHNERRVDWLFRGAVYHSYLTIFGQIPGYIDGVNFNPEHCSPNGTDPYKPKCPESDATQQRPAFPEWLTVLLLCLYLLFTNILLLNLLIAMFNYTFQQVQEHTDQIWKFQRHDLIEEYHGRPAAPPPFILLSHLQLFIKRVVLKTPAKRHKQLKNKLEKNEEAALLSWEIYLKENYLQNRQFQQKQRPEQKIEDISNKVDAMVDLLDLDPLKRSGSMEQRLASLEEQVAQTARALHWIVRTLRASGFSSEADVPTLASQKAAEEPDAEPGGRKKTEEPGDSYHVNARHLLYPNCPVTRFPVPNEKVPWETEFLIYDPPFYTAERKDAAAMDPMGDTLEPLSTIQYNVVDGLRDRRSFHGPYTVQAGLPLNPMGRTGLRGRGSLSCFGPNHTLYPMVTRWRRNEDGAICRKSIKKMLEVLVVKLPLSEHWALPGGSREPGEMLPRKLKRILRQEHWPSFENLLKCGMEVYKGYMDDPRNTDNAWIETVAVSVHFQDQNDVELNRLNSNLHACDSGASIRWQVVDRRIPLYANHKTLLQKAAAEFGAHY", "test": "Whole-cell patch-clamp of membrane currents in tetracycline-inducible HEK293 cells expressing FLAG-TrpC7", "assay_type": "cell-based", "conditions": "for gating of TrpC7 / induced plasma membrane currents: 100 μM in patch pipette, currents at -80 mV; for gating of TrpC7 / induced plasma membrane currents / gating of TrpC7: after tetracycline induction", "protocol": "Wild type and tetracycline-inducible HEK293 FLAG-TrpC7 expressing cells were cultured at 37° C./5% CO2 in DMEM supplemented with 10% FBS and 2 mM glutamine. The medium was supplemented with blasticidin (5 μg/ml; Invitrogen) and zeocin (0.4 mg/ml; Invitrogen). Cells were resuspended in media containing 1 μg/ml tetracycline (Invitrogen) 24 hours before patch-clamp experiments.\nFor patch-clamp experiments, coverslips were transferred to the recording chamber and kept in a standard modified Ringer's solution of the following composition (in mM): NaCl 145, KCl 2.8, CaCl2 1, MgCl2 2, glucose 10, Hepes-NaOH 10, pH 7.2. Intracellular pipette-filling solutions contained (in mM): Cs-glutamate 145, NaCl 8, MgCl2 1, Cs-BAPTA 10, pH 7.2 adjusted with CsOH. […] The agonists were dissolved in the standard intracellular solution. Ionomycin (Sigma) was added to the extracellular standard solution.\nPatch-clamp experiments were performed in the tight-seal whole-cell configuration at 21-25° C. High-resolution current recordings were acquired by a computer-based patch-clamp amplifier system (EPC-9, HEKA, Lambrecht, Germany). […] Immediately following establishment of the whole-cell configuration, voltage ramps of 50 ms duration spanning the voltage range of −100 to +100 mV were delivered from a holding potential of 0 mV at a rate of 0.5 Hz over a period of 200 to 400 seconds. All voltages were corrected for a liquid junction potential of 10 mV between external and internal solutions. Currents were filtered at 2.9 kHz and digitized at 100 μs intervals. Capacitive currents and series resistance were determined and corrected before each voltage ramp using the automatic capacitance compensation of the EPC-9. For analysis, the very first ramps were digitally filtered at 2 kHz, pooled and used for leak-subtraction of all subsequent current records. The low-resolution temporal development of currents at a given potential was extracted from the leak-corrected individual ramp current records by measuring the current amplitudes at voltages of −80 mV or +80 mV."}, "[1]": {"biological_target": "T2, TrpC7 NUDT9 homology region (Homo sapiens, UniProt O94759)", "T2 construct": "an NcoI site, an artificial start codon, amino acids 1197-1503, a stop codon, and a 3′ NotI site; Met from artificial start codon (N); made in house; host or cells: E. coli BL21 (DE3), pET-24d", "T2 sequence (O94759 1197-1503)": "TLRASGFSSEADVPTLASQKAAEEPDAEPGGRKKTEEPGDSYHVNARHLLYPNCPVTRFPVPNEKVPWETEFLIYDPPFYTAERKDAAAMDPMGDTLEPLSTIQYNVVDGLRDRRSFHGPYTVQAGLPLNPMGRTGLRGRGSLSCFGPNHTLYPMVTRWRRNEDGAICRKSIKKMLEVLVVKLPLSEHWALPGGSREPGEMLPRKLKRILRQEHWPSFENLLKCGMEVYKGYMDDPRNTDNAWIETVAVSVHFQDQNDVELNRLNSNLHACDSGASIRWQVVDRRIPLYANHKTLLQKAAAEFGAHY", "test": "Nudix type enzyme assay (ADP-ribose hydrolysis, liberated orthophosphate), TrpC7 NUDT9 homology region", "assay_type": "biochemical", "conditions": "ADP-ribose as substrate", "protocol": "(§1) BL21 (DE3) cells containing the respective expression plasmids were grown at 37° C. in LB broth on a shaker to an A600 of about 0.6 and induced by the addition of isopropyl-β-D-thiogalactopyranoside to a concentration of 1 mM. The cells were allowed to grow for an additional 4 h, harvested, washed by suspension in isotonic saline, centrifuged in pre-weighed centrifuge tubes, and the packed cells were stored at −80° C. […] In the case of NUDT9, enzyme was extracted in the freeze-thaw fraction and ammonium sulfate was added to 35% final concentration. The precipitate was discarded after centrifugation and ammonium sulfate was added to the supernatant to a final concentration of 50%. The precipitate was collected by centrifugation, dissolved then chromatographed, then chromatographed on a gel filtration column (Sephadex G-100). […]\n(§2) Enzyme Assay—Enzyme velocities were quantified by measuring the conversion of a phosphatase-insensitive substrate, ADP-ribose, to the phosphatase-sensitive products, AMP and ribose-5-phosphate. The liberated inorganic orthophosphate was measured by the procedure of Ames and Dubin (Ames, B. N., and Dubin, D. T., J. Biol. Chem. 1960, 235:769-775). […] After 30 min at 37° C., the reaction was terminated by the addition of EDTA and inorganic orthophosphate was measured.\n(§3) Km and Vmax were calculated by non-linear regression analysis of Lineweaver-Burke plots."}, "[2]": {"test_system": "non-selective plasma membrane ion channel in ascidian oocytes", "conditions": "cited from earlier work"}, "NUDT9 (mutTCCH-1)": {"biological_target": "T3, NUDT9 (mutTCCH-1) (Homo sapiens, UniProt Q9BW91)", "T3 construct": "made in house; host or cells: E. coli BL21 (DE3), pET-24d", "T3 sequence (Q9BW91 47-350)": "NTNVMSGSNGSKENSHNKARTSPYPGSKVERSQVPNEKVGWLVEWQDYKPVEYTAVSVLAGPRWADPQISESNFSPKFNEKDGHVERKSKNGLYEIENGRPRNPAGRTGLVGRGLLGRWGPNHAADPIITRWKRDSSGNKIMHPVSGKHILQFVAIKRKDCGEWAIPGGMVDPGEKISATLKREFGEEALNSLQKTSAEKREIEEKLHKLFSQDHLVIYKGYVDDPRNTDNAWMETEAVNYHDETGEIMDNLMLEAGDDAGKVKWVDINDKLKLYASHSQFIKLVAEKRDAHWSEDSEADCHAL", "test": "Nudix type enzyme assay, substrate screen with recombinant NUDT9", "assay_type": "biochemical", "conditions": "panel of nucleoside diphosphate derivatives; products AMP and ribose-5-phosphate", "protocol": "as §1, §2, §3"}, "[3]": {"conditions": "intracellular perfusion, current magnitude and latency"}}, "note": "“Also recorded” adds a separate entry of the source."}
{"smiles": "Nc1ncnc2c1ncn2[C@@H]1O[C@H](COP(=O)(O)OP(=O)(O)OC[C@H]2OC(O)[C@H](O)[C@@H]2O)[C@@H](O)[C@H]1O", "note": "(some centres unmarked) [ADP-ribose, Adenosine 5-diphospho (ADP)-ribose]", "values": [{"measurement": "gating of TrpC7 / induced plasma membrane currents", "setting": "TrpC7", "result": "extremely large currents are induced; also recorded: large inward currents"}, {"measurement": "currents induced by intracellular perfusion", "setting": "TrpC7; 300 μM, tetracycline-induced cells, -80 mV and +80 mV", "result": "almost linear cationic currents with slight outward rectification"}, {"measurement": "concentration at which TrpC7 activation begins to occur", "setting": "TrpC7; [3]", "result": "60-100 μLM"}, {"measurement": "concentration at which TrpC7 activation saturates", "setting": "TrpC7; [3]", "result": "around 300 μM"}, {"measurement": "Kd", "setting": "TrpC7; peak current amplitudes at -80 mV, 10 μM to 1 mM, read-out: apparent KD of dose-response curve for gating of TrpC7", "result": 90, "unit": "µM"}, {"measurement": "effect on plasma membrane currents", "setting": "TrpC7; without tetracycline induction (no FLAG-TrpC7 expression)", "result": "no detectable effect"}, {"measurement": "activity relative to that observed for NUDT9", "setting": "[1]", "result": "approximately 1%"}, {"measurement": "Vmax (specific activity)", "setting": "[1]; E. coli expressed protein", "result": 0.1, "unit": "μmol/min/mg protein"}, {"measurement": "concentration that gates the currents", "setting": "[2]", "result": "≥ 10", "unit": "nM"}, {"measurement": "substrate specificity of recombinant NUDT9", "setting": "NUDT9 (mutTCCH-1)", "result": "highly specific ADP-ribose pyrophosphatase"}]}
{"smiles": "Nc1ncnc2c1ncn2[C@@H]1O[C@H](COP(=O)(O)OP(=O)(O)O[C@H]2O[C@H](CO)[C@@H](O)[C@H](O)[C@@H]2O)[C@@H](O)[C@H]1O", "note": "[ADP-mannose]", "values": [{"measurement": "gating of TrpC7 / induced plasma membrane currents", "setting": "TrpC7", "result": "no detectable gating"}]}
{"smiles": "Nc1nc2c(ncn2[C@@H]2O[C@H](COP(=O)(O)OP(=O)(O)O[C@H]3O[C@H](CO)[C@@H](O)[C@H](O)[C@@H]3O)[C@@H](O)[C@H]2O)c(=O)[nH]1", "note": "[GDP-mannose]", "values": [{"measurement": "gating of TrpC7 / induced plasma membrane currents", "setting": "TrpC7", "result": "no detectable gating"}]}
{"smiles": "Nc1ncnc2c1ncn2[C@@H]1O[C@H](COP(=O)(O)OP(=O)(O)O[C@H]2O[C@H](CO)[C@@H](O)[C@H](O)[C@H]2O)[C@@H](O)[C@H]1O", "note": "[ADP-glucose]", "values": [{"measurement": "gating of TrpC7 / induced plasma membrane currents", "setting": "TrpC7", "result": "no detectable gating"}]}
{"smiles": "O=P(O)(O)O[C@@H]1[C@H](O)[C@H](O)[C@@H](OP(=O)(O)O)[C@H](OP(=O)(O)O)[C@H]1O", "note": "[inositol-1,4,5-trisphosphate, inositol 1,4,5-trisphosphate]", "values": [{"measurement": "gating of TrpC7", "setting": "TrpC7; 20 μM in patch pipette", "result": "no detectable gating"}]}
{"smiles": "C[C@H](CCC(=O)O)C[C@H](C)C[C@H](C)C(=O)/C=C(\\O)[C@H](C)C[C@H](C)C/C=C/[C@@H](C)[C@@H](O)[C@@H](C)[C@@H](O)C[C@@H]1CC[C@@](C)([C@H]2CC[C@@](C)([C@@H](C)O)O2)O1", "note": "[ionomycin, Ionomycin]", "values": [{"measurement": "gating of TrpC7", "setting": "TrpC7; 10 μM, added to the extracellular solution", "result": "no detectable gating"}]}
{"smiles": "Nc1nc2c(ncn2[C@@H]2O[C@H](COP(=O)(O)OP(=O)(O)O[C@H]3O[C@H](CO)[C@@H](O)[C@H](O)[C@H]3O)[C@@H](O)[C@H]2O)c(=O)[nH]1", "note": "[GDP-glucose, guanosine 5-diphospho (GDP)-glucose]", "values": [{"measurement": "gating of TrpC7 / induced plasma membrane currents", "setting": "TrpC7", "result": "no detectable gating"}]}
{"smiles": "N=c1c2ncn3c2ncn1[C@@H]1O[C@H](COP(=O)(O)OP(=O)(O)OC[C@H]2O[C@@H]3[C@H](O)[C@@H]2O)[C@@H](O)[C@H]1O", "note": "[cyclic ADP-ribose, cyclic ADP-Ribose]", "values": [{"measurement": "gating of TrpC7 / induced plasma membrane currents", "setting": "TrpC7", "result": "no detectable gating"}]}
